The results in this text go back to patent US20250051347A1, “BIFUNCTIONAL CHIMERIC HETEROCYCLIC COMPOUND AND USE THEREOF AS ANDROGEN RECEPTOR DEGRADER” (Hinova Pharmaceuticals, Inc., priority 2021, published 2025).

In experiment [1] the target is T1, androgen receptor (AR) splicing variant AR-v7 (Homo sapiens, UniProt P10275).
T1 construct: The degradation activity of compounds on AR-v7 in 22RV1 cells; host or cells: 22RV1 cells
T1 sequence (P10275 1-644 isoform P10275-3): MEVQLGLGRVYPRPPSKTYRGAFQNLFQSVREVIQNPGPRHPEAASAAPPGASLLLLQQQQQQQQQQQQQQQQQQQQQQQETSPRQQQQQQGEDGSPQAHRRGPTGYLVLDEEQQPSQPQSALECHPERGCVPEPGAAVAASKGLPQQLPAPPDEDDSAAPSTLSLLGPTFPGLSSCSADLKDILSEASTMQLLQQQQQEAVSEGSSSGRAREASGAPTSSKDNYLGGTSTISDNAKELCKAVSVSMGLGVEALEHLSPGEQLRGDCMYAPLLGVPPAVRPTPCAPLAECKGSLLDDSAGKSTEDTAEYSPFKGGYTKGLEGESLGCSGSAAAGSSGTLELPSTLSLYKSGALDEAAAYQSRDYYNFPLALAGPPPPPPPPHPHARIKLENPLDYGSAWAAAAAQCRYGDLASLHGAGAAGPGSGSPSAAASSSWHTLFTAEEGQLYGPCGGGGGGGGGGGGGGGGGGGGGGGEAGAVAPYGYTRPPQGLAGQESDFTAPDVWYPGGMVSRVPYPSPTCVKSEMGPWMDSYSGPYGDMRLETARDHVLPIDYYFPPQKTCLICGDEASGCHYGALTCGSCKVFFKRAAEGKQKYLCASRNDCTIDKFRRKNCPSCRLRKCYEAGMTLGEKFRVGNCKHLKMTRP
Put plainly: Degradation activity on androgen receptor splicing variant AR-v7 in 22RV1 cells (ELISA). It is filed as cell-based. Particulars: AR-v7 degradation in 22RV1 cells, 48 h, class symbols. Background: ELISA stands for enzyme-linked immunosorbent assay.

Experiment [2] deals with 22RV1 cells. Particulars: Homo sapiens, 22Rv1, 144 h, read-out: 22RV1 IC50 (nM), 22RV1 cells, 6 days culture, CCK-8, OD 450 nm.

Broadly, the DC50 is the concentration at which degradation of the target reaches its halfway point. A word on the IC50: it is the concentration at which inhibition is half-maximal. In experiment [1], `CC(=O)c1ncc(Oc2ccc(C(C)(C)c3ccc(O[C@H]4C[C@@H](Nc5ccc6c(c5)C(=O)N(C5CCC(=O)NC5=O)C6=O)C4)cc3)cc2)cn1` (stereo partly drawn) [Example 128, 5-(((cis)-3-(4-(2-(4-((2-acetylpyrimidin-5-yl)oxy)phenyl)propan-2-yl)phenoxy)cyclobutyl)amino)-2-(2,6-dioxopiperidin-3-yl)isoindolin-1,3-dione] showed a DC50 of 11 to 100 nM. The IC50 in experiment [2] was 7 nM.
In experiment [1], `CC(C)(c1ccc(Oc2cncc(-n3nccn3)n2)cc1)c1ccc(O[C@H]2C[C@H](Nc3ccc4c(c3)C(=O)N(C3CCC(=O)NC3=O)C4=O)C2)cc1` (stereo partly shown) [Example 579] gave a DC50 below 10 nM. The IC50 in experiment [2] turned out to be 7 nM.
The like results for `CC(C)(c1ccc(Oc2ccc(CN3CC(F)C3)nn2)cc1)c1ccc(O[C@H]2C[C@H](Nc3ccc4c(c3)C(=O)N(C3CCC(=O)NC3=O)C4=O)C2)cc1` (stereo partly shown) [Example 478] were, in that order, below 10 nM and 6 nM.
In the same order, the values of `CC(=O)c1ccc(Oc2ccc(C(C)(C)c3ccc(O[C@H]4C[C@@H](Nc5ccc6c(c5)C(=O)N(C5CCC(=O)NC5=O)C6=O)C4)cc3)cc2)nn1` (stereo partly shown) [Example 523] are below 10 nM and 6 nM.
The like results for `CC(C)(c1ccc(OCCCNc2ccc3c(c2)C(=O)N(C2CCC(=O)NC2=O)C3=O)cc1)c1ccc(OCc2ccnc(-n3cncn3)n2)cc1` (stereo not shown) [Example 389, 5-((3-(4-(2-(4-((2-(1H-1,2,4-triazol-1-yl)pyrimidin-4-yl)methoxy)phenyl)propan-2-yl)phenoxy)propyl)amino)-2-(2,6-dioxopiperidin-3-yl)isoindol-1,3-dione] were, in that order, 11 to 100 nM and 54 nM.
In turn, `CC(C)(c1ccc(OCc2ccnc(N3CC4(COC4)C3)n2)c(F)c1)c1ccc(O[C@H]2C[C@@H](Nc3ccc4c(c3)C(=O)N(C3CCC(=O)NC3=O)C4=O)C2)c(F)c1` (stereo partly shown) [Example 366, 5-(((1s,3s)-3-(4-(2-(4-((2-(2-oxa-6-azaspiro[3.3]heptane-6-yl)pyrimidin-4-yl)methoxy)-3-fluorophenyl)isopropan-2-yl)-2-fluorophenoxy)cyclobutyl)amino)-2-(2,6-dioxopiperidin-3-yl)isoindolin-1,3-dione] showed a 50% degradation concentration (DC50) in experiment [1] below 10 nM. Besides, the IC50 in experiment [2] was 3 nM.
With `CC(C)(c1ccc(Oc2ncnc(N3CC4(COC4)C3)c2F)cc1)c1ccc(O[C@H]2C[C@H](Nc3ccc4c(c3)C(=O)N(C3CCC(=O)NC3=O)C4=O)C2)cc1` (stereo partly shown) [Example 572], the DC50 in experiment [1] was below 10 nM. Moreover, the IC50 in experiment [2] was 16 nM.
In the case of `CCC(CC)(c1ccc(Oc2ccc(C(C)=O)nn2)cc1)c1ccc(O[C@H]2C[C@H](Nc3ccc4c(c3)C(=O)N(C3CCC(=O)NC3=O)C4=O)C2)cc1` (stereo partly shown) [Example 176, 5-(((1r,3r)-3-(4-(3-(4-((6-acetylpyridazine-3-yl)oxy)phenyl)pentan-3-yl)phenoxy)cyclobutyl)amino)-2-(2,6-dioxopiperidin-3-yl)isoindolin-1,3-dione], the DC50 in experiment [1] is below 10 nM. The concentration for half-maximal inhibition (IC50) in experiment [2] is 2 nM.
With `CC(C)(c1ccc(Oc2cncc(-n3ccnn3)n2)cc1)c1ccc(O[C@H]2C[C@H](Nc3ccc4c(c3)C(=O)N(C3CCC(=O)NC3=O)C4=O)C2)cc1` (stereo partly shown) [Example 580], in experiment [1], the DC50 was below 10 nM. The concentration for half-maximal inhibition (IC50) in experiment [2] stood at 14 nM.
In the same order, the values of `CC(=O)c1ncc(Oc2ccc(C3(c4ccc(O[C@H]5C[C@H](Nc6ccc7c(c6)C(=O)N(C6CCC(=O)NC6=O)C7=O)C5)cc4)CCCC3)cc2)cn1` (stereo partly shown) [Example 135] are below 10 nM and 2 nM.
The like results for `CC(C)(c1ccc(OCCCNc2ccc3c(c2)C(=O)N(C2CCC(=O)NC2=O)C3=O)cc1)c1ccc(OCc2ccnc(C(N)=O)n2)cc1` (stereo not shown) [Example 182, 4-((4-(2-(4-(3-((2-(2,6-dioxopiperidin-3-yl)-1,3-dioxoisoindolin-5-yl)amino)propoxy)phenyl)propan-2-yl)phenoxy)methyl)pyrimidin-2-carbonylamine] were, in that order, 11 to 100 nM and 50 nM.
The like results for `CC(O)c1nccc(COc2ccc(C(C)(C)c3ccc(O[C@H]4C[C@@H](Nc5ccc6c(c5)C(=O)N(C5CCC(=O)NC5=O)C6=O)C4)cc3)cc2)n1` (stereo partly shown) [Example 492] were, in that order, below 10 nM and 7 nM.
Take `CC(O)c1nccc(COc2ccc(C(C)(C)c3ccc(OCCCNc4ccc5c(c4)C(=O)N(C4CCC(=O)NC4=O)C5=O)cc3)cc2)n1` (stereo not shown) [Example 345, 2-(2,6-dioxopiperidin-3-yl)-5-((3-(4-(2-(4-((2-(1-hydroxylethyl)pyrimidin-4-yl)methoxy)phenyl)isopropan-2-yl)phenoxy)propyl)amino)isoindolin-1,3-dione]: the DC50 in experiment [1] lay in the range of 11 to 100 nM. In addition, the IC50 in experiment [2] came out at 10 nM.
In the same order, the values of `CC(C)(c1ccc(OCc2ccnc(N3CC(N4CCC4)C3)n2)cc1)c1ccc(O[C@H]2C[C@H](Nc3ccc4c(c3)C(=O)N(C3CCC(=O)NC3=O)C4=O)C2)cc1` (stereo partly shown) [Example 414] are below 10 nM and 6 nM.
`CC(=O)c1ccc(Oc2ccc(C(C)(C)c3ccc(O[C@H]4C[C@H](Nc5ccc6c(c5)C(=O)N(C5CCC(=O)NC5=O)C6=O)C4)cc3)cc2)cn1` (stereo partly shown) [Example 124]: in experiment [1], the DC50 is below 10 nM. In addition, the IC50 in experiment [2] is 8 nM.
`CC(C)(c1ccc(OCc2ccnc(-n3ccnn3)n2)cc1)c1ccc(O[C@H]2C[C@@H](Nc3ccc4c(c3)C(=O)N(C3CCC(=O)NC3=O)C4=O)C2)cc1` (stereo partly shown) [Example 445, 5-(((1s,3s)-3-(4-(2-(4-((2-(1H-1,2,3-triazol-1-yl)pyrimidin-4-yl)methoxy)phenyl)propan-2-yl)phenoxy)cyclobutyl)amino)-2-(2,6-dioxopiperidin-3-yl)isoindolin-1,3-dione] returned a half-maximal degradation concentration (DC50) in experiment [1] below 10 nM. Further, in experiment [2], the IC50 was determined as 5 nM.
Consider `COc1nccc(COc2ccc(C(C)(C)c3ccc(OCCCNc4ccc5c(c4)C(=O)N(C4CCC(=O)NC4=O)C5=O)cc3)cc2)n1` (stereo not shown) [Example 68, 2-(2,6-dioxopiperidin-3-yl)-5-((3-(4-(2-(4-((2-methoxypyrimidin-4-yl)methoxy)phenyl)propan-2-yl)phenoxy)propyl)amino)isoindolin-1,3-dione], for which the DC50 in experiment [1] lay within 11 to 100 nM. Also, the half-inhibitory concentration (IC50) in experiment [2] was 30 nM.
The like results for `Cc1nc(-c2nccc(COc3ccc(C(C)(C)c4ccc(O[C@H]5C[C@@H](Nc6ccc7c(c6)C(=O)N(C6CCC(=O)NC6=O)C7=O)C5)cc4)cc3)n2)no1` (stereo partly shown) [Example 278] were, in that order, below 10 nM and 6 nM.
In the same order, the values of `CNC(=O)c1ncc(Oc2ccc(C(C)(C)c3ccc(O[C@H]4C[C@H](Nc5ccc6c(c5)C(=O)N(C5CCC(=O)NC5=O)C6=O)C4)cc3)cc2)cn1` (stereo partly shown) [Example 432] are below 10 nM and 7 nM.
On to `CNc1nccc(COc2ccc(C(C)(C)c3ccc(O[C@H]4C[C@H](Nc5ccc6c(c5)C(=O)N(C5CCC(=O)NC5=O)C6=O)C4)cc3)cc2)n1` (stereo partly shown) [Example 395], for which the DC50 in experiment [1] was below 10 nM. Moreover, the 50% inhibitory concentration (IC50) in experiment [2] came out at 10 nM.
Consider `COc1nccc(COc2ccc(C(C)(C)c3ccc(O[C@H]4C[C@H](Nc5ccc6c(c5)C(=O)N(C5CCC(=O)NC5=O)C6=O)C4)cc3)cc2)n1` (stereo partly shown) [Example 449, 2-(2,6-dioxopiperidin-3-yl)-5-(((1r,3r)-3-(4-(2-(4-((2-methoxypyrimidin-4-yl)methoxy)phenyl)propan-2-yl)phenoxy)cyclobutyl)amino) isoindolin-1,3-dione], for which the DC50 in experiment [1] was 11 to 100 nM. Also, in experiment [2], the IC50 was 10 nM.
`CC(C)(c1ccc(Oc2cnc(C(N)=O)nc2)cc1)c1ccc(O[C@H]2C[C@H](Nc3ccc4c(c3)C(=O)N(C3CCC(=O)NC3=O)C4=O)C2)cc1` (stereo partly shown) [Example 265, 5-(4-(2-(4-((1r,3r)-3-((2-(2,6-dioxopiperidin-3-yl)-1,3-dioxoisoindolin-5-yl)amino)cyclobutyloxy)phenyl)propan-2-yl)phenoxy)pyrimidin-2-carbonylamine] had a 50% degradation concentration (DC50) in experiment [1] below 10 nM. Further, the IC50 in experiment [2] turned out to be 4 nM.
The compound `Cc1nc(-c2ncc(F)cc2Oc2ccc(C(C)(C)c3ccc(O[C@H]4C[C@H](Nc5ccc6c(c5)C(=O)N(C5CCC(=O)NC5=O)C6=O)C4)cc3)cc2)no1` (stereo partly shown) [Example 512] came in with a DC50 in experiment [1] below 10 nM. Moreover, the IC50 in experiment [2] was 8 nM.
Turning to `CN1CCN(c2nccc(COc3ccc(C(C)(C)c4ccc(OC5CC(Nc6ccc7c(c6)C(=O)N(C6CCC(=O)NC6=O)C7=O)C5)cc4)cc3)n2)CC1` (stereo not shown) [Example 393], in experiment [1], the DC50 was in the range of 11 to 100 nM. Further, the concentration for half-maximal inhibition (IC50) in experiment [2] amounted to 10 nM.
In the same order, the values of `Cc1nc(-c2ncc(Oc3ccc(C4(c5ccc(O[C@H]6C[C@H](Nc7ccc8c(c7)C(=O)N(C7CCC(=O)NC7=O)C8=O)C6)cc5)CCCCC4)cc3)cn2)no1` (stereo partly shown) [Example 339] are below 10 nM and 2 nM.
As to `CC(C)(c1ccc(OCc2ccnc(-c3ncon3)n2)cc1)c1ccc(O[C@H]2C[C@H](Nc3ccc4c(c3)C(=O)N(C3CCC(=O)NC3=O)C4=O)C2)cc1` (stereo partly shown) [Example 281], in experiment [1], the DC50 is below 10 nM. Further, the half-inhibitory concentration (IC50) in experiment [2] came to 5 nM.
